The record followed here is PubChem BioAssay AID1508591.

For this data set the following is noted: rat; liver microsomes; pH 7.4; 15.0 min; 1.0 µM. (In general: Microsomes from liver hold many membrane-bound enzymes, among them those of drug oxidation.)

`O=C(CCCN1CCC(n2c(=O)[nH]c3ccccc32)CC1)c1ccc(F)cc1` gave a half-life of 10.9 min.

`COc1ccc2c3c([nH]c2c1)C1CC2C(CC(O)C(OC)C2CO)CN1CC3` (stereo not given) showed a half-life of more than 30 min.

Take `Cc1ccc(S(=O)(=O)Nc2ncccc2C(=O)Nc2nc(-c3ccccc3)cs2)cc1`: the half-life is 14 min.

The molecule `Cc1noc(C)c1-c1csc(N2CCC(C(N)=O)CC2)n1` yielded a half-life of more than 30 min.

The molecule `Fc1ccccc1Nc1nc(-c2ccncc2)nc2ccccc12` had a half-life of 7.9 min.

`COCC(C)Nc1ncnc2c1cnn2-c1ccc(C)c(C)c1` (stereo not given) returned a half-life of 23.7 min.

On to `COC(=O)CNC(=O)c1nc(-c2ccc([S+](C)(=O)[O-])cc2)c2cnccn12`, for which the half-life is more than 30 min.

Turning to `CNS(=O)(=O)c1cc(-c2nn3c(C)nnc3c3ccccc23)ccc1C`, the half-life is more than 30 min.

Consider `Cc1cn2c(-c3cn[nH]c3)cnc2c(Nc2ccc(C(=O)N3CCNCC3)cc2F)n1`, for which the half-life stood at 7 min.

For `Cc1cc(C)c(C(=O)Nc2cccc([S+](=O)([O-])N3CCCCC3)c2)[nH]1`, the half-life is 3 min.

Turning to `C=C1C(=O)O[C@H]2[C@@H]1CCC(C)=CCC[C@@]1(C)O[C@@H]21`, the half-life was 16.7 min.

As for `NC(=O)C1CCN(c2nccc(-c3ccc4c(c3)OCCO4)n2)CC1`, the half-life was 1.71 min.

The molecule `COc1ccc2c(ccn2CCC(=O)Nc2ccc3c(c2)C(=O)N2CCC[C@H]2C(=O)N3)c1` registered a half-life of 9.22 min.

Regarding `COc1cc(N2CCC(N3CCN(C)CC3)CC2)ccc1Nc1ncc(Cl)c(Nc2ccccc2P(C)(C)=O)n1`, the half-life is more than 30 min.

`O=C(Nc1ccc(Cl)c(S(=O)(=O)N2CCOCC2)c1)c1ccc(S(=O)(=O)N2CCCCC2)cc1` returned a half-life of 3 min.

For `O=c1[nH]nc(Sc2ncc([N+](=O)[O-])s2)n1-c1ccc2c(c1)OCCO2`, the half-life is 1.02 min.

The molecule `O=C(Nc1ccc(S(=O)(=O)Nc2nccs2)cc1)c1cc(-c2ccccc2)nc2ccccc12` came in with a half-life of more than 30 min.

`Cn1c(=O)c2[nH]c(=O)[nH]c2n(C)c1=O`: the half-life was more than 30 min.

Regarding `CC(=O)c1c(C)[nH]c(C(=O)Nc2cccc([S+](=O)([O-])Nc3ccc(C#N)cc3)c2)c1C`, the half-life was more than 30 min.

`COC(=O)c1cccc(NC(=O)c2cnc(-c3ccc(F)cc3)nc2-c2ccncc2)c1` came in with a half-life of 9.09 min.

`CCC(CC)C(=O)NC[C@@H]1C=C(C)[C@H](Cc2nc3c(C)cccc3[nH]2)C[C@H]1C(C)C`: the half-life is 1.12 min.

`CCOC(=O)N1CCN(Cc2nc3cc(NC(=O)CC(C)C)ccc3n2C(C)C)CC1` showed a half-life of more than 30 min.

Turning to `Cc1ccnc(NC(=S)N2CCN(c3cc(C(F)(F)F)cc(C(F)(F)F)c3)CC2)c1`, the half-life was more than 30 min.

Molecule `CC(C)CNc1ccnc(NCc2csc(-c3ccccc3)n2)n1` registered a half-life of 2.07 min.

`Brc1ccc(-c2csc(N3CCC(c4nn[nH]n4)CC3)n2)cc1` registered a half-life of more than 30 min.

Molecule `CN1CC=C(c2nc(Nc3ccc(F)c(F)c3)c3ccccc3n2)CC1` displayed a half-life of 3.6 min.

Turning to `CN(C(=O)CSc1nc2ccc(NC(=O)c3ccc(F)cc3)cc2s1)c1ccccc1`, the half-life was found to be 2.04 min.

Molecule `Fc1cc(Nc2nc(-c3ccncc3)nc3ccccc23)ccc1C(F)(F)F` returned a half-life of 17 min.

The molecule `COc1ccc2c(c1)/C(=C/c1cnc[nH]1)C(=O)N2` gave a half-life of more than 30 min.

Turning to `CN(C)C(=O)c1cc(-c2ccc(S(C)(=O)=O)cc2)c2cnn(C)c2n1`, the half-life was more than 30 min.

The molecule `CCN(CC)S(=O)(=O)c1cccc(C(=O)Nc2ccc(C#N)cc2)c1` showed a half-life of 3.8 min.

In turn, `Cc1cccc(-n2cnc3cc(C(=O)N4CCCC(C)C4)ccc32)c1` (stereo not given) came in with a half-life of 2.5 min.

In turn, `COc1ccc(-n2c(C)c(C(C)=O)c3cc(OC(=O)COc4ccccc4)ccc32)cc1` returned a half-life of 10.4 min.

In the case of `CC(C)(C)c1ccc(S(=O)(=O)N2CCC(c3ccncc3)CC2)cc1`, the half-life was 14.3 min.

Molecule `COc1ccccc1Nc1ccnc(N2CCN(C(=O)c3ccc(C)cc3)CC2)n1` gave a half-life of 5.68 min.

In turn, `Cc1cc(N)c2cc(NC(=O)Nc3ccc4nc(C)cc(N)c4c3)ccc2n1` gave a half-life of more than 30 min.

In the case of `CCC1=Nc2cc(C(=O)NC3CCCC3)ccc2Sc2ccc(Cl)cc21`, the half-life came out at 1.61 min.

Turning to `COc1cccc(CN2CCNc3cc(Nc4ccccc4)ncc3C2)c1`, the half-life worked out at 1.58 min.

In turn, `COc1cccc(CNc2ccc([S+](=O)([O-])Nc3ccccc3)cc2)c1Cl` registered a half-life of 2.4 min.

The molecule `COc1cccc(-n2ncc3c2CCCC3NC(=O)c2ccccn2)c1` (stereo not given) gave a half-life of 11 min.

Regarding `Cc1cccc(C)c1NC(=O)c1nc(SC(C)C)ncc1Cl`, the half-life came out at 1.38 min.

The molecule `CCc1ccc2oc(NC3=NC(c4[nH]ncc4Cl)C4=C(CCCC4=O)N3)nc2c1` (stereo not given) came in with a half-life of 22 min.

For `CCOc1ccc(CNC(=O)CCCn2nc(C)c3c(C)n(-c4ccc(C)cc4)nc3c2=O)cc1`, the half-life was found to be 3.01 min.

`O=C(Nc1cc(C(F)(F)F)ccc1N1CCOCC1)c1n[nH]c(=O)c2ccccc12`: the half-life was more than 30 min.

As to `COc1ccc(NC(=O)CCCc2nnc3n(CCC(C)C)c(=O)c4sccc4n23)cc1Cl`, the half-life was 2.96 min.

`Cc1cc(C)nc(NC(=S)N2CCN(c3cccc(C(F)(F)F)n3)CC2)c1` had a half-life of 28 min.

In turn, `Cn1ncnc1[C@H]1c2n[nH]c(=O)c3cc(F)cc(c23)N[C@@H]1c1ccc(F)cc1` registered a half-life of more than 30 min.

Consider `Cc1cccc(-n2cnc3cc(C(=O)N4CCC(Br)CC4)ccc32)c1`, for which the half-life was 2.5 min.

The molecule `CC(C)(C)c1ccc(C(=O)N2CC(=O)Nc3ccc(F)cc3C2c2ccc(F)cc2)cc1` (stereo not given) returned a half-life of 8.57 min.

Turning to `CC(=O)c1c(C)[nH]c(C(=O)Nc2cccc(S(=O)(=O)Nc3ccc(Br)c(F)c3)c2)c1C`, the half-life was 17 min.

The molecule `COc1ccc(C(=O)NC2CCN(c3cnn(CC4CC4)c(=O)c3)CC2)cc1` showed a half-life of more than 30 min.

`COc1ccc(NS(=O)(=O)c2ccc(C)cc2)cc1C(=O)Nc1nc(-c2ccccc2)cs1` yielded a half-life of 12 min.

`Cc1cc(-c2nnc3n2CCCCC3)c(C)n1-c1cccc2ccccc12` displayed a half-life of 2.1 min.

`Cc1ccc(-c2ccc(CNc3nc(-c4ccccc4C(C)C)nc4ccccc34)cc2)cn1` had a half-life of 8.23 min.

As to `CC(=O)c1ccc(N2CCN(c3ccc(NC(=O)c4ccc(F)cc4)cc3C(=O)O)CC2)cc1`, the half-life is more than 30 min.

In the case of `CCCOC(=O)c1ccc(Oc2c(-c3ccc(O)cc3O)n[nH]c2C)cc1`, the half-life was 3.04 min.

In turn, `NC(=O)C1CCN(c2ncc(-c3cccc(N4CCOCC4)c3)s2)CC1` gave a half-life of more than 30 min.

`Oc1ccc2[nH]cc(CCCCN3CC=C(c4ccccc4)CC3)c2c1` gave a half-life of more than 30 min.

Molecule `O=c1c2ccccc2nc2n1CCC2` registered a half-life of more than 30 min.

On to `O=C(Nc1ccccc1O)c1ccc(NC(=O)C2CC2)cc1`, for which the half-life was more than 30 min.

In turn, `CC(=O)N1CCN(c2nc(-c3ccc(Br)cc3)cs2)CC1` gave a half-life of more than 30 min.

Turning to `CCc1oc2ccccc2c1C(=O)c1cc(I)c(O)c(I)c1`, the half-life is 13.7 min.

`O=C(NCCCO)c1ccc(-c2ncc3cnc(-c4cccc(F)c4)cn23)cc1` registered a half-life of more than 30 min.

`Cc1cccc(C)c1C(=O)Nc1cccc([S+](=O)([O-])N(C)C)c1` registered a half-life of 8 min.

`O=C(Nc1ncc(Cc2ccc(C(F)(F)F)cc2)s1)c1ncc(-c2ccccc2)[nH]1` showed a half-life of more than 30 min.

`CCOc1ccc(NC(=O)CSC2=Nc3ccccc3C3=NC(CC(=O)NCc4cccs4)C(=O)N23)cc1` (stereo not given) showed a half-life of 4.16 min.

For `NC(=O)C1CCN(c2nc(-c3ccccc3N)cs2)CC1`, the half-life was 25.3 min.

`CC(C)Oc1cccc(-c2ccnc(N3CCC(C(N)=O)CC3)n2)c1` gave a half-life of 11.6 min.

`Cc1sc(NC(=O)Cc2ccc3c(c2)OCO3)nc1-c1ccc2c(c1)CCN2C(=O)c1ccccc1F` yielded a half-life of 20 min.

As to `O=C(C=Cc1cccnc1)NCCCCC1CCN(C(=O)c2ccccc2)CC1`, the half-life worked out at 12.2 min.

`Cc1nnc2c3ccccc3nc(N3CCN(c4ccccc4)CC3)n12`: the half-life was more than 30 min.

In the case of `O=C(Nc1ccc(Cl)c(S(=O)(=O)N2CCOCC2)c1)c1ccc(S(=O)(=O)N2CCOCC2)cc1`, the half-life stood at 6.4 min.

Molecule `CN(C)c1cccc(-c2cnc(Nc3cccnc3)c3c2CCO3)c1` registered a half-life of 5.25 min.

Regarding `C=C1C(=O)OC2C1CCC(C)C1(O)C=CC(=O)C21C` (stereo not given), the half-life is more than 30 min.

For `Cc1cc(C)c2nc(-c3ccccn3)cc(C(=O)Nc3ccc(S(=O)(=O)Nc4onc(C)c4C)cc3)c2c1`, the half-life is more than 30 min.

`Cc1nnc2n1-c1ccc(Cl)cc1C(c1ccccc1)=NC2` showed a half-life of 21.2 min.

Molecule `Fc1cc(Nc2nc(-c3ccncc3)nc3ccccc23)ccc1-c1cccc(C(F)(F)F)c1` displayed a half-life of more than 30 min.

Turning to `FC(F)(F)c1cc(-c2ccc(CNc3nc(-c4ccccc4C(F)(F)F)nc4ccsc34)cc2)ccn1`, the half-life was determined as 14.8 min.

The molecule `Nc1nc2c(s1)C(c1ccc(Br)cc1)CC(=O)N2` (stereo not given) gave a half-life of 23.8 min.

Molecule `CCC(=O)NC(c1ccc(OC)cc1)c1cc(Cl)c2cccnc2c1O` (stereo not given) came in with a half-life of 4.41 min.

The molecule `CN(C)CCOc1ccc(C(=C(CCCl)c2ccccc2)c2ccccc2)cc1` came in with a half-life of more than 30 min.

Take `CCc1ccc(NC(=O)c2[nH]c(C)c(C(C)=O)c2C)cc1[S+](=O)([O-])Nc1ccccc1C#N`: the half-life is more than 30 min.

Regarding `CCN1CCN(CC(=O)Nc2ccc(-c3cccc4c(=O)cc(N5CCOCC5)oc34)c3sc4ccccc4c23)CC1`, the half-life is more than 30 min.

Regarding `O=C(C1CCN(c2nc(-c3ccc(Br)cc3)cs2)CC1)N1CCOCC1`, the half-life was more than 30 min.

In turn, `O=C(Nc1ccc(Nc2ccncc2)cc1)c1ccc(Nc2ccnc3ccc([N+](=O)[O-])cc23)cc1[N+](=O)[O-]` had a half-life of more than 30 min.

For the molecule `CC1CCc2cc(F)ccc2N1C(=O)CSc1nnc2c(n1)[nH]c1ccccc12` (stereo not given), the half-life amounted to 2.02 min.

As for `O=C(c1ccncc1)N1CCC2(CCCN(C(c3ccccc3)c3ccccc3)C2)CC1`, the half-life was 2.2 min.

`Cc1ccc(S(=O)(=O)Nc2cncc(C(=O)Nc3nc(-c4ccccc4)cs3)c2)cc1` displayed a half-life of 19 min.

The molecule `CCOC(=O)c1cnc2ccc(-c3cncc(NS(=O)(=O)c4ccccc4)c3)cn12` gave a half-life of 19 min.

Turning to `COc1ccc2cc1Oc1ccc(cc1)C[C@@H]1c3c(cc(OC)c4c3Oc3cc5c(cc3O4)CCN[C@H]5C2)CCN1C`, the half-life is more than 30 min.

Broadly, the half-life is the time needed for the level to fall by half in the phase considered. A high value points to slow loss.
